According to ChEMBL document CHEMBL1159241, “Dihydrolicoisoflavone, a new isoflavanone from Swartzia polyphylla” (J Nat Prod, 1995):

Experiment: Inhibition of protein kinase C

COc1ccc(-c2coc3cc(O)cc(O)c3c2=O)cc1 [BIOCHANIN]
IC50: < 50 µg/mL
